This is an account of results in paper PMC6562126, “Identification and characterization of a carnitine transporter in Acinetobacter baumannii” (MicrobiologyOpen, 2018).

What is called inhibition is the drop in the measured response relative to a control, in per cent.

For experiment [1], the target named is T1, Aci01347 (Acinetobacter baumannii, UniProt D0C9N4).
T1 construct: gene HMPREF0010_01347; N-terminal His6 tag, pBAD/HisA; expressed in E. coli MKH13 (no compatible solute transporters)
T1 sequence (D0C9N4 1-550): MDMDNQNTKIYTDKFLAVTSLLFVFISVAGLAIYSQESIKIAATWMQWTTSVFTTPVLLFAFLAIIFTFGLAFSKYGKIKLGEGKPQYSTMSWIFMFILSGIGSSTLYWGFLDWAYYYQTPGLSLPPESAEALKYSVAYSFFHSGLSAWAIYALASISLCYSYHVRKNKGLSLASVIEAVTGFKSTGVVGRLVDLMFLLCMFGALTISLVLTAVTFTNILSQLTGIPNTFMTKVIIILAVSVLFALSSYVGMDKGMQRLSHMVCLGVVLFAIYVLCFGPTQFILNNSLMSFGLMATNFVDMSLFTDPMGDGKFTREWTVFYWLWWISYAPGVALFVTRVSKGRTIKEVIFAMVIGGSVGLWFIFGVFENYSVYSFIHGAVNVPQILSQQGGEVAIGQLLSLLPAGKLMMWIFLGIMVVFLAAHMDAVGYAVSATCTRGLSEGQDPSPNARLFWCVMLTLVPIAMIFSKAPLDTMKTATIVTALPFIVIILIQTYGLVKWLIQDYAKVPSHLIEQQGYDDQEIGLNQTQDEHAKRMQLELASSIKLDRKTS
Description: […]-choline uptake in E. coli MKH13 expressing Aci01347. It is filed as cell-based. As to conditions: 500 µM substrate; KPi 25 mM pH 7.5, 0.2 osmol/kg, 37 °C, glucose-energised cells; labelled compound.

The target in experiment [2] is T1, Aci01347. Put plainly: competition with […]-choline uptake in E. coli MKH13 expressing Aci01347. It is filed as cell-based. As to conditions: read-out: % inhibition at 0.5 mM.

Take `C[N+](C)(C)CCO` [choline, 2-hydroxyethyl trimethylammonium chloride]: in experiment [1], the “[14C]-choline uptake in E. coli MKH13 expressing Aci01347” value was “These data demonstrate that Aci01347 translocates choline”.

With `CC1=NCC[C@@H](C(=O)O)N1` [ectoine], the inhibition at 500 µM in experiment [2] stood at 9.2%.

With `C[N+](C)(C)CC(=O)[O-]` [glycine betaine], in experiment [2], the inhibition at 500 µM was 14.5%.

Turning to `C[N+]1(C)CCC[C@H]1C(=O)[O-]` [proline betaine], the inhibition at 500 µM in experiment [2] was found to be 2.4%.

For `O=C(O)[C@@H]1CCCN1` [proline], in experiment [2], the inhibition at 500 µM was 4.6%.
